From patent publication US20040018500A1, “Methods and systems for analyzing complex biological systems” (priority 2001, published 2004)

Columns and labels:
[1] = system: Saccharomyces cerevisiae wild type strain BY4743; assay: AF1 combined gene expression and metabolite data mapped to KEGG reactions and pathways; type: cell-based
From the text: In AF1, two different technologies were utilized: gene expression analysis (for examination of mRNA expression) and metabolite analysis. […] As noted previously, existing metabolic databases may be helpful in practicing the methods and systems of the present invention, but many databases include limitations that make their use in data analysis and pathway mapping less than straightforward. […] This caveat to KEGG makes it difficult to pinpoint the correct pathway when attempting to link a gene to a specific pathway. […] The pathway score indicates how meaningful the mapping is, or how likely it is to be correctly indicative of the pathway involved in the perturbation under examination. The method provides a pathway score based on perturbation levels of genes and/or compounds and the information content of each gene and/or compound in the pathway, i.e., a pathway score indicates the extent to which other pathways are mapped to a gene/compound. For example, imagine that two genes are perturbed in a particular experiment. One gene maps to only one pathway, giving a high degree of probability that the perturbed pathway is the one identified in the mapping. The second gene maps to three pathways. In the later example, there is only one-third the probability that the pathway identified in the mapping is the one perturbed. The present invention provides a method for calculating the pathway scores, so that more weight is given to a score of a gene or compound that maps to only one pathway than to a score of a gene or compound that maps to multiple pathways. […] Where n=the total number of genes in the pathway; ipath—count=the number of pathways containing a gene; and j=the number of genes in the pathway that are perturbed. Another factor to be considered when weighting a pathway score is the degree of perturbation. Degree of perturbation can be calculated, for example, based on a number of standard deviations from a norm, and included in an equation such as the one shown above, so that not only the number of pathways is taken into account, but also accounts for the amount of gene transcript or compound present as compared to a control. Compounds were also linked to pathways using the KEGG database. […] Of the 676 compounds under consideration, 77 were detected in the AF1 samples. […] The multiple mapping feature of KEGG makes it difficult to pinpoint the correct pathway when trying to link a compound to a specific pathway. […] A pathway score calculation is applied to the compounds to account for both information content (number of pathways a compound maps to) and perturbation level. The data were then combined to determine the number of reactions showing an enzyme and at least one compound perturbed, and to determine the number of pathways having at least one enzyme and one perturbed compound perturbed. The results of the analysis are represented in Tables 16 and 17, and were difficult to interpret, illustrating that the ability to draw conclusions from compound mapping to pathways is limited when absent additional data.

[2] = system: Saccharomyces cerevisiae wild type strain BY4743; assay: AF1 gene expression analysis (microarray) of yeast treated with antifungal drugs; type: cell-based; settings: p < 0.05; KEGG pathway mapping
Protocol: Saccharomyces cerevisiae wild type strain BY4743 was purchased from American Type Culture Center (ATCC, Manassas, Va.). The yeast strain was grown in YPD or SD media. […] The cultures started from fresh single colonies were grown in 1.0 ml YPD overnight at 30° C. […] The OD600 was adjusted to 1.0 with YPD media, then 2.0 ml of each was inoculated into three 250 ml flasks, each containing 50 ml of SD media. […] The cells were kept growing for another two hours, then collected by centrifugation at 4000 rpm for 5 minutes at 4° C. Pellets were washed once with ice-cold water, then were lyophilized overnight at 4° C. […] RNA quality was determined using the Bioanalyzer 2100 and the RNA 6000 assay (Agilent Technologies, Palo Alto, Calif.) according to manufacturer's instructions. RNA concentrations were determined spectrophotometrically by measuring the absorption at 260 nm in an Ultrospec 2000 (Pharmacia Biotech, Piscataway, N.J.). […] Labeled cRNAs were evaluated using the RNA 6000 assay on the Agilent Bioanalyzer 2100. Labeled cRNA concentrations were determined spectrophotometrically by measuring the absorption at 260 nm in an Ultrospec 2000 (Pharmacia Biotech, Piscataway, N.J.). […] Each feature was determined from an array's associated pattern file and a detection algorithm. […] Data was evaluated after combining results from fluor reversal replicate hybridizations. […]

Structure (SMILES): C[C@@H]1[C@H](O)[C@@H](C)/C=C/C=C/C=C/C=C/C=C/C=C/C=C/[C@H](O[C@@H]2O[C@H](C)[C@@H](O)[C@H](N)[C@@H]2O)C[C@@H]2O[C@](O)(C[C@@H](O)C[C@@H](O)[C@H](O)CC[C@@H](O)C[C@@H](O)CC(=O)O[C@H]1C)C[C@H](O)[C@H]2C(=O)O [Amphoteracin B]
- Number Of Pathways Having at Least One Enzyme and One Compound Perturbed (# Reactions) [1]: 37
- Number of Reactions Having an Enzyme and at Least One Compound Perturbed [1]: 54
- # Pathways Affected by at Least One Gene [2]: 97
